Data reported in PMC11219871, “Epigenetic-based differentiation therapy for Acute Myeloid Leukemia” (Nature Communications, 2024).
pIC50: −log10 of the molar value. “And” between values parts separate entries of the source, which are not always exact repeats. Equal values may be shown once.

Key:
HDAC10 = molecular target: T1, HDAC10 (Homo sapiens, UniProt Q969S8); assay: HDAC assay (Eurofins); type: biochemical
T1 construct: purchased Eurofins (contracted assay service)
T1 sequence (Q969S8 1-669): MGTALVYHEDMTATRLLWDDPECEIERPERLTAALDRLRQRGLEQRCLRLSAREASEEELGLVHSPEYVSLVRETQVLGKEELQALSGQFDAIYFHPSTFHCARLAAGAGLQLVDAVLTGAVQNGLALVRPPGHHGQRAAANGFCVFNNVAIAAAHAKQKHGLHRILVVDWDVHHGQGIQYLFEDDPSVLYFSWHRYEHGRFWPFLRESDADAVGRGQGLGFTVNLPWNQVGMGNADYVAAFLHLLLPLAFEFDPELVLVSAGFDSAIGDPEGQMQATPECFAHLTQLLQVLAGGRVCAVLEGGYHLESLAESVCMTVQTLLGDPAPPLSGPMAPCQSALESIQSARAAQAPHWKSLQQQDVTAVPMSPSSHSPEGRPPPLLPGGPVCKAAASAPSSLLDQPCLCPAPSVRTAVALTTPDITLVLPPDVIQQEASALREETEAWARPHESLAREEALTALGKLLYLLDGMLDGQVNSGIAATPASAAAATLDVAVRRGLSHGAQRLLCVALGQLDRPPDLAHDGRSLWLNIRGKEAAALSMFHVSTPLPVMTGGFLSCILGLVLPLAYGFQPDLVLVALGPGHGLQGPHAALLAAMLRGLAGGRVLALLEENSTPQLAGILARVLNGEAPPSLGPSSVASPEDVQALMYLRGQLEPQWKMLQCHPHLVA

HL-60 = assay: q-RT-PCR of MYC, CDKN2A, CDKN1A, GATA2, TAL1, CEBPA, SPI1; type: cell-based, human
Procedure: (§1) RNA was extracted with TRIzol Reagent (Invitrogen) according to the manufacturer’s instructions. First, cDNA was synthesized from 1 µg of total RNA using the PrimeScript RT reagent Kit (Perfect Real Time) (Cat No RR037A, TaKaRa) following the manufacturer’s instructions. The quality of cDNA was checked by a multiplex PCR that amplifies PBGD, ABL, BCR and β2-MG genes. […] The following program conditions were used for the q-PCR: 50 °C for 2 min, 95 °C for 60 s following by 45 cycles at 95 °C for 15 s and 60 °C for 60 s; melting program, one cycle at 95 °C for 15 s, 40 °C for 60 s, and 95 °C for 15 s. The relative expression of each gene was quantified by the […] method using the gene GUS as an endogenous control. The sequence of primers used can be found in Supplementary Table 10.

ML-2 = assay: as above; type: cell-based, human
Procedure: as §1

MOLM-13 = assay: as above; type: cell-based, human
Procedure: as §1

Kinetic solubility = type: physicochemical; conditions: PBS buffer, aqueous buffer, kinetic from dmso stock, pH 7.4, PBS
Procedure: This study was conducted at Wuxi (http://www.wuxi.com/). Stock solutions of test compounds (10 mM; 100% DMSO) and 490 μL of PBS buffer at pH = 7.4 were added in the lower chamber of Whatman’s Mini-Uniprep vials. After vortex mixing for ≥2 min, the vials were shaken at 800 rpm for 24 h and finally centrifuged at 1520 g for 20 min. The concentration of the filtrate was quantified by HPLC (calibration curve from 1.5624 μM to 200 μM). Amiodarone hydrochloride, carbamazepine and chloramphenicol were used as controls.

[1] = tested on: MOLM-13 i.v. in BALB/cA Rag2-/-γc-/- mice; assay: Intravenous xenograft model (survival, CD11b in blood, body weight); type: in vivo, mouse; conditions: for Body weight: intravenous MOLM-13 AML mouse model, individual mice
Procedure: (§2) The human AML MV4-11 and MOLM-13 xenograft mice models were generated by intravenous (i.v.) injection of 10 × 10^6 (MV4-11) or 1 × 10^4 (MOLM-13) cells diluted in 100 µL of saline solution in the tail vein of a 6-8-week-old female BALB/cA Rag2^−/−γc^−/− mice (n = 10). Treatment started 7 or 1 day after MV4-11 or MOLM-13 cells injection, respectively. MV4-11 and MOLM-13 mice were treated with i.p. 10 mg/kg of CM-444 and CM-1758 during 5 consecutive days followed by 2 resting days for 7 and 2 weeks, respectively. The control group received only 80% saline solution, 10% DMSO and 10% Tween 20 (diluents of CM-444 and CM-1758). The mice weight was controlled and remained stable during the treatment. Statistical results were calculated using the statistical software Medcalc. CD11b levels in blood samples from an intravenous MV4-11 mice model were measured by flow cytometry, as described above.

[2] = tested on: MV4-11 i.v. in BALB/cA Rag2-/-γc-/- mice; assay: as above; type: in vivo, mouse; conditions: for body weight of mice: intravenous MV4-11 AML mouse model, individual mice
Procedure: as §2

[3] = HL-60, replicates 1-3 (Figure 2E)
[4] = HL-60, replicates 1-3 (Figure 2G)
[5] = HL-60 treated daily for 48 h, replicates (Fig 6F)
[6] = ML-2, replicates 1-3 (Figure 2E)
[7] = ML-2, replicates 1-3 (Figure 2G)
[8] = ML-2 treated daily for 48 h, replicates (Fig 6G)
[9] = MOLM-13, daily treatment for 48 h, replicates 1-3

## COc1cc2nc(-c3cc(C)oc3C)cc(NCC3CCN(c4ncc(C(=O)NO)cn4)CC3)c2cc1OC [CM-1758, 2-[4-[[[2-(2,5-dimethyl-3-furyl)-6,7-dimethoxy-4-quinolyl]amino]methyl] -1-piperidyl]pyrimidine-5-carbohydroxamic acid]
HDAC10
  pIC50: 7.54
HDAC10; 10 µM
  inhibition at 10 µM: 98%
HL-60; [3]
  q-PCR of CDKN1A (p21), log10 (2-ΔΔCt): 1.37 and 1.926 and 1.271
  q-PCR of CDKN2A (p16), log10 (2-ΔΔCt): 0.4933 and 0.5726 and 0.5849
  q-PCR of MYC, log10 (2-ΔΔCt): -0.8313 and -0.6255 and -0.6597
HL-60; [4]
  q-PCR of CEBPA, log10 (2-ΔΔCt): 0.9022 and 0.7826 and 0.9863
  q-PCR of GATA2, log10 (2-ΔΔCt): 0.6526 and 0.7826 and 0.7794
  q-PCR of SPI1 (PU.1), log10 (2-ΔΔCt): 0.3258 and 0.4025 and 0.5101
  q-PCR of TAL1 (SCL), log10 (2-ΔΔCt): 0.0125 and 0.0025 and -0.00845
HL-60; [5]
  q-PCR of CEBPA: 1.657 log10 (2-ΔΔCt) and 1.235 log10 (2-ΔΔCt) and 2.096 log10 (2-ΔΔCt)
  q-PCR of GATA2: 0.5314 log10 (2-ΔΔCt) and 0.9421 log10 (2-ΔΔCt) and 0.9001 log10 (2-ΔΔCt)
  q-PCR of MYC: -0.7182 log10 (2-ΔΔCt) and -0.6003 log10 (2-ΔΔCt) and -0.8615 log10 (2-ΔΔCt)
  q-PCR of SPI1: 0.5322 log10 (2-ΔΔCt) and 0.69 log10 (2-ΔΔCt) and 0.7959 log10 (2-ΔΔCt)
  q-PCR of TAL1: 1.7134 log10 (2-ΔΔCt) and 1.966 log10 (2-ΔΔCt) and 2.209 log10 (2-ΔΔCt)
ML-2; [6]
  q-PCR of CDKN1A (p21), log10 (2-ΔΔCt): 1.727 and 1.688 and 1.928
  q-PCR of CDKN2A (p16), log10 (2-ΔΔCt): 0.7127 and 0.6825 and 0.5556
  q-PCR of MYC, log10 (2-ΔΔCt): -0.9587 and -1.237 and -1.248
ML-2; [7]
  q-PCR of CEBPA, log10 (2-ΔΔCt): 1.926 and 1.786 and 1.671
  q-PCR of GATA2, log10 (2-ΔΔCt): 2.013 and 1.996 and 2.475
  q-PCR of SPI1 (PU.1), log10 (2-ΔΔCt): 0.4833 and 0.5215 and 0.7318
  q-PCR of TAL1 (SCL), log10 (2-ΔΔCt): 1.453 and 1.626 and 1.68
ML-2; [8]
  q-PCR of CEBPA: 1.831 log10 (2-ΔΔCt) and 1.961 log10 (2-ΔΔCt) and 2.004 log10 (2-ΔΔCt)
  q-PCR of GATA2: 1.288 log10 (2-ΔΔCt) and 1.216 log10 (2-ΔΔCt) and 1.319 log10 (2-ΔΔCt)
  q-PCR of MYC: -0.6622 log10 (2-ΔΔCt) and -0.5247 log10 (2-ΔΔCt) and -0.8222 log10 (2-ΔΔCt)
  q-PCR of SPI1: 0.8685 log10 (2-ΔΔCt) and 0.5818 log10 (2-ΔΔCt) and 0.6427 log10 (2-ΔΔCt)
  q-PCR of TAL1: 1.398 log10 (2-ΔΔCt) and 0.9599 log10 (2-ΔΔCt) and 0.8228 log10 (2-ΔΔCt)
MOLM-13; [9]
  q-PCR of CEBPA, log10 (2-ΔΔCt): 2.72 and 2.6188 and 2.826
  q-PCR of GATA2, log10 (2-ΔΔCt): 1.088 and 1.1424 and 1.015
  q-PCR of MYC, log10 (2-ΔΔCt): -0.6216 and -0.5326 and -0.5822
  q-PCR of SPI1, log10 (2-ΔΔCt): 0.02692 and 0.258 and 0.1525
  q-PCR of TAL1, log10 (2-ΔΔCt): 1.716 and 1.83 and 1.719
MOLM-13; MOLM-13, q-PCR
  CDKN1A log10 (2-ΔΔCt): 0.1026 and 0.1237 and 0.1127
  CDKN2A log10 (2-ΔΔCt): 1.026 and 0.9216 and 0.9282
  GATA2 log10 (2-ΔΔCt): 0.5214 and 0.4825 and 0.3541
  MYC log10 (2-ΔΔCt): -0.9936 and -0.8825 and -0.8494
  SPI1 log10 (2-ΔΔCt): 0.02258 and 0.0358 and 0.04789
  TAL1 log10 (2-ΔΔCt): 1.37 and 1.426 and 1.336
Kinetic solubility
  solubility at 24 h: > 144 µg/mL
[1]; MOLM-13 i.v., 10 mg/kg i.p., 5 days on/2 off, 2 weeks
  overall survival (OS): not having observed an increase in OS
[1]; day 4
  Body weight: 25.4 and 23.9 (2×) and 24.4 and 22.7 (2×) and 23.8 and 21.5 and 23 and 21.9
[1]; day 6
  Body weight: 25.4 and 23 and 24.3 and 22 and 22.6 and 21.4 and 22.8 (2×) and 22.1 and 22.4
[1]; day 8, in g (unit assumed)
  Body weight: 24.7 and 22.7 and 23.8 and 22.6 and 21.8 and 21.7 and 22.1 and 21.9 and 22 and 22.8
[1]; day 11
  Body weight: 24.3 and 22.3 and 23.6 and 21.6 and 21.7 (2×) and 20.7 and 21 and 21.5 and 22.6
[1]; day 13
  Body weight: 24.3 and 22.6 and 23.5 and 21.5 (2×) and 22.1 and 21.4 and 21.9 and 21.7 and 22.4
[2]; MV4-11 i.v., 10 mg/kg i.p.
  CD11b in blood samples: statistically significant increase in CD11b
[2]; MV4-11 i.v., 10 mg/kg i.p., 5 days on/2 off, 7 weeks
  overall survival (OS): increased overall survival
[2]; day 20, in g (unit assumed)
  body weight of mice: 25 and 24.9 and 24 and 26.8 and 24.5 and 23.3 and 20.4 and 22.9 and 24.6 and 23.8 and 22.8 and 23
[2]; day 23, in g (unit assumed)
  body weight of mice: 23.9 and 24.6 and 28.5 and 27.5 and 23.5 and 23 and 19.4 and 23.1 and 23.8 and 22.2 and 22.5 and 22.4
[2]; day 25
  body weight of mice: 23.7 (2×) and 23.8 and 27.9 and 26.9 and 23.2 and 22.7 and 19.6 and 22.8 and 21.9 and 22.2 and 22
[2]; day 28
  body weight of mice: 23.6 (2×) and 23.8 and 26.5 and 26.6 and 23.2 and 23.1 and 18.9 and 21.4 and 21.2 and 21.7
[2]; day 30
  body weight of mice: 23.1 and 23.9 and 25.7 and 26.6 and 22.3 and 22.6 (2×) and 18.6 and 21 (2×) and 22.1
[2]; day 31
  body weight of mice: 23.5 and 22.8 and 25.9 and 26.7 and 22.3 and 22.1 (2×) and 18.3 and 21.8 and 21.3 and 17.9
[2]; day 35, in g (unit assumed)
  body weight of mice: 24 and 22.9 and 26.1 and 26.8 and 22.4 and 23.1 and 19.4 and 22.5 and 22 and 22.1
[2]; day 37
  body weight of mice: 23.4 and 24.4 (2×) and 27.2 and 26.3 and 22.9 and 18.3 and 23.1 and 22 and 22.7
[2]; day 42, in g (unit assumed)
  body weight of mice: 25.8 and 24.7 and 28.1 and 26.1 and 23.8 and 24.5 and 20.5 and 23.3
[2]; day 44, in g (unit assumed)
  body weight of mice: 26 and 25.3 and 28.3
[2]; mice engrafted intravenously with MV4-11 cells, individual mice (Fig 3E)
  CD11b levels in blood samples: 26.3% and 16.2% and 21.1% and 11.9% and 23.1% and 11% and 20.5%
[2]; mice engrafted with MV4-11 cells intravenously, individual mice (Fig 3D)
  Survival time (Kaplan-Meier, event = 1): 25 days and 32 days and 46 days and 48 days and 53 days and 57 days
